Laboratory results published in ChEMBL document CHEMBL3045563, “Synthesis and in vitro antibacterial activity of schiff bases of N-substituted isatins as effective scaffolds” (2013).
≈ marks a conversion by molar mass, not a printed value.

How the values were obtained:
Assay type in all cases: functional
[1] = system: Staphylococcus epidermidis; experiment: Antibacterial activity against Staphylococcus epidermidis NCIM 2493 assessed as diameter of growth zone inhibition after 24 hr by disk diffusion method
[2] = system: Proteus vulgaris; experiment: Antibacterial activity against Proteus vulgaris NCIM 2027 assessed as diameter of growth zone inhibition after 24 hr by disk diffusion method
[3] = system: Escherichia coli; experiment: Antibacterial activity against Escherichia coli NCIM 2065 assessed as diameter of growth zone inhibition after 24 hr by disk diffusion method
[4] = system: Pseudomonas aeruginosa; experiment: Antibacterial activity against Pseudomonas aeruginosa NCIM 2036 assessed as diameter of growth zone inhibition after 24 hr by disk diffusion method
[5] = system: Bacillus subtilis; experiment: Antibacterial activity against Bacillus subtilis NCIM 2156 assessed as diameter of growth zone inhibition after 24 hr by disk diffusion method
[6] = system: Proteus vulgaris; experiment: Antibacterial activity against Proteus vulgaris NCIM 2027 assessed as growth inhibition after 48 hr by NCCLS broth dilution method; details: NCIM 2027, 48 h
[7] = system: Staphylococcus aureus; experiment: Antibacterial activity against Staphylococcus aureus NCIM 2079 assessed as diameter of growth zone inhibition after 24 hr by disk diffusion method
[8] = system: Staphylococcus epidermidis; experiment: Antibacterial activity against Staphylococcus epidermidis NCIM 2493 assessed as growth inhibition after 48 hr by NCCLS broth dilution method; details: NCIM 2493, 48 h
[9] = system: Escherichia coli; experiment: Antibacterial activity against Escherichia coli NCIM 2065 assessed as growth inhibition after 48 hr by NCCLS broth dilution method; details: NCIM 2065, 48 h
[10] = system: Bacillus subtilis; experiment: Antibacterial activity against Bacillus subtilis NCIM 2156 assessed as growth inhibition after 48 hr by NCCLS broth dilution method; details: NCIM 2156, 48 h
[11] = system: Pseudomonas aeruginosa; experiment: Antibacterial activity against Pseudomonas aeruginosa NCIM 2036 assessed as growth inhibition after 48 hr by NCCLS broth dilution method; details: NCIM 2036, 48 h
[12] = system: Staphylococcus aureus; experiment: Antibacterial activity against Staphylococcus aureus NCIM 2079 assessed as growth inhibition after 48 hr by NCCLS broth dilution method; details: NCIM 2079, 48 h

Compound | diameter of the inhibition zone (DIZ) [1] | diameter of the inhibition zone (DIZ) [2] | diameter of the inhibition zone (DIZ) [3] | diameter of the inhibition zone (DIZ) [4] | diameter of the inhibition zone (DIZ) [5] | MIC [6] | diameter of the inhibition zone (DIZ) [7] | MIC [8] | MIC [9] | MIC [10] | MIC [11] | MIC [12]
Cc1ccc2c(c1)/C(=N/c1ccc(N3C(=O)c4ccc(Cl)cc4C3=O)c(C)c1)C(=O)N2 | 10 mm | 10 mm | 12 mm | 16 mm | 12 mm | 20 µg/mL (≈ 46.5 µM) | 20 mm | 15 µg/mL (≈ 34.9 µM) | 20 µg/mL (≈ 46.5 µM) | 25 µg/mL (≈ 58.2 µM) | 15 µg/mL (≈ 34.9 µM) | 10 µg/mL (≈ 23.3 µM)
Cc1cc(/N=C2\C(=O)Nc3ccc([N+](=O)[O-])cc32)ccc1N1C(=O)c2ccc(Cl)cc2C1=O | 20 mm | 11 mm | 22 mm | 18 mm | 16 mm | 15 µg/mL (≈ 32.5 µM) | 20 mm | 10 µg/mL (≈ 21.7 µM) | 10 µg/mL (≈ 21.7 µM) | 15 µg/mL (≈ 32.5 µM) | 10 µg/mL (≈ 21.7 µM) | 10 µg/mL (≈ 21.7 µM)
CCCN1C(=O)/C(=N\c2ccc(N3C(=O)c4ccc(Cl)cc4C3=O)c(C)c2)c2cc([N+](=O)[O-])ccc21 | 12 mm | 12 mm | 12 mm | 10 mm | 10 mm | 20 µg/mL (≈ 39.8 µM) | 10 mm | 15 µg/mL (≈ 29.8 µM) | 20 µg/mL (≈ 39.8 µM) | 30 µg/mL (≈ 59.7 µM) | 20 µg/mL (≈ 39.8 µM) | 30 µg/mL (≈ 59.7 µM)
Cc1cc(/N=C2\C(=O)N(S(=O)(=O)c3ccc([N+](=O)[O-])cc3)c3ccc(OC(F)(F)F)cc32)ccc1N1C(=O)c2ccc(Cl)cc2C1=O | 18 mm | 22 mm | 20 mm | 18 mm | 14 mm | 10 µg/mL (≈ 14.6 µM) | 20 mm | 10 µg/mL (≈ 14.6 µM) | 10 µg/mL (≈ 14.6 µM) | 15 µg/mL (≈ 21.9 µM) | 10 µg/mL (≈ 14.6 µM) | 10 µg/mL (≈ 14.6 µM)
Cc1cc(/N=C2\C(=O)N(Cc3ccccc3)c3ccc([N+](=O)[O-])cc32)ccc1N1C(=O)c2ccc(Cl)cc2C1=O | 10 mm | 14 mm | 16 mm | 14 mm | 10 mm | 15 µg/mL (≈ 27.2 µM) | 12 mm | 15 µg/mL (≈ 27.2 µM) | 15 µg/mL (≈ 27.2 µM) | 25 µg/mL (≈ 45.4 µM) | 15 µg/mL (≈ 27.2 µM) | 30 µg/mL (≈ 54.5 µM)
Cc1cc(/N=C2\C(=O)N(S(C)(=O)=O)c3ccc([N+](=O)[O-])cc32)ccc1N1C(=O)c2ccc(Cl)cc2C1=O | 18 mm | 14 mm | 24 mm | 18 mm | 16 mm | 15 µg/mL (≈ 27.8 µM) | 16 mm | 10 µg/mL (≈ 18.6 µM) | 10 µg/mL (≈ 18.6 µM) | 15 µg/mL (≈ 27.8 µM) | 10 µg/mL (≈ 18.6 µM) | 15 µg/mL (≈ 27.8 µM)
Cc1cc(/N=C2\C(=O)N(S(=O)(=O)c3ccc([N+](=O)[O-])cc3)c3ccc([N+](=O)[O-])cc32)ccc1N1C(=O)c2ccc(Cl)cc2C1=O | 20 mm | 14 mm | 22 mm | 18 mm | 16 mm | 15 µg/mL (≈ 23.2 µM) | 18 mm | 10 µg/mL (≈ 15.5 µM) | 10 µg/mL (≈ 15.5 µM) | 15 µg/mL (≈ 23.2 µM) | 10 µg/mL (≈ 15.5 µM) | 10 µg/mL (≈ 15.5 µM)
O=C(O)c1cn(C2CC2)c2cc(N3CCNCC3)c(F)cc2c1=O [CIPROFLOXACIN] | 28 mm | 28 mm | 30 mm | 24 mm | 22 mm | 10 µg/mL (≈ 30.2 µM) | 26 mm | 10 µg/mL (≈ 30.2 µM) | – | 10 µg/mL (≈ 30.2 µM) | 10 µg/mL (≈ 30.2 µM) | 10 µg/mL (≈ 30.2 µM)
C#CCN1C(=O)/C(=N\c2ccc(N3C(=O)c4ccc(Cl)cc4C3=O)c(C)c2)c2cc([N+](=O)[O-])ccc21 | 8 mm | 10 mm | 18 mm | 14 mm | 8 mm | 20 µg/mL (≈ 40.1 µM) | 13 mm | 20 µg/mL (≈ 40.1 µM) | 15 µg/mL (≈ 30.1 µM) | 30 µg/mL (≈ 60.1 µM) | 15 µg/mL (≈ 30.1 µM) | 25 µg/mL (≈ 50.1 µM)
Cc1cc(/N=C2\C(=O)N(Cc3ccccc3)c3ccc(OC(F)(F)F)cc32)ccc1N1C(=O)c2ccc(Cl)cc2C1=O | 8 mm | 12 mm | 17 mm | 10 mm | 12 mm | 20 µg/mL (≈ 33.9 µM) | 14 mm | 20 µg/mL (≈ 33.9 µM) | 15 µg/mL (≈ 25.4 µM) | 25 µg/mL (≈ 42.4 µM) | 20 µg/mL (≈ 33.9 µM) | 25 µg/mL (≈ 42.4 µM)
Cc1cc(/N=C2\C(=O)N(S(C)(=O)=O)c3ccc(OC(F)(F)F)cc32)ccc1N1C(=O)c2ccc(Cl)cc2C1=O | 18 mm | 16 mm | 22 mm | 14 mm | 18 mm | 15 µg/mL (≈ 26 µM) | 16 mm | 10 µg/mL (≈ 17.3 µM) | 10 µg/mL (≈ 17.3 µM) | 15 µg/mL (≈ 26 µM) | 15 µg/mL (≈ 26 µM) | 15 µg/mL (≈ 26 µM)
Cc1cc(/N=C2\C(=O)N(S(=O)(=O)C(F)(F)F)c3ccc(OC(F)(F)F)cc32)ccc1N1C(=O)c2ccc(Cl)cc2C1=O | 10 mm | 20 mm | 23 mm | 12 mm | 20 mm | 10 µg/mL (≈ 15.8 µM) | 18 mm | 15 µg/mL (≈ 23.7 µM) | 10 µg/mL (≈ 15.8 µM) | 10 µg/mL (≈ 15.8 µM) | 15 µg/mL (≈ 23.7 µM) | 15 µg/mL (≈ 23.7 µM)
C#CCN1C(=O)/C(=N\c2ccc(N3C(=O)c4ccc(Cl)cc4C3=O)c(C)c2)c2cc(OC(F)(F)F)ccc21 | 10 mm | 14 mm | 10 mm | 12 mm | 11 mm | 15 µg/mL (≈ 27.9 µM) | 10 mm | 15 µg/mL (≈ 27.9 µM) | 20 µg/mL (≈ 37.2 µM) | 25 µg/mL (≈ 46.5 µM) | 15 µg/mL (≈ 27.9 µM) | 30 µg/mL (≈ 55.8 µM)
Cc1cc(/N=C2\C(=O)Nc3ccc(OC(F)(F)F)cc32)ccc1N1C(=O)c2ccc(Cl)cc2C1=O | 18 mm | 14 mm | 24 mm | 20 mm | 16 mm | 15 µg/mL (≈ 30 µM) | 18 mm | 10 µg/mL (≈ 20 µM) | 10 µg/mL (≈ 20 µM) | 15 µg/mL (≈ 30 µM) | 10 µg/mL (≈ 20 µM) | 10 µg/mL (≈ 20 µM)
